In patent US20240116951A1, “HETEROCYCLIC COMPOUNDS AND USES THEREOF” (Kumquat Biosciences Inc., priority 2022, published 2024):

Columns and labels:
Type in all cases: binding
KRAS G12D = target: T1, KRAS G12D (Homo sapiens, UniProt P01116, G12D); assay: HTRF assay of K-Ras G12D interaction with SOS1 (PPI-HTRF); conditions: HTRF, 5 nM KRAS G12D; read-out: PPI-HTRF-5 nM KRAS G12D
T1 construct: made in house; host or cells: E. coli, e.g. BL21 (DE3)
Outline: (§1)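 Read-out: HTRF ratio 665/620 nm (ex 337 nm) after ~10 min or longer. Donor anti-GST-Eu(K) on GST-K-Ras and acceptor anti-6His-XL665 on His-hSOS1, in HEPES pH 7.4 buffer with DTT, BSA and Igepal. Duplicate dilution series from 10 μM down to 0.01 μM gave IC50 values.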

KRAS G12S = target: T2, KRAS G12S (Homo sapiens, UniProt P01116, G12S); assay: HTRF assay of K-Ras G12S interaction with SOS1 (PPI-HTRF); conditions: 5 nM KRAS G12S, read-out: PPI-HTRF-5 nM KRAS G12S
T2 construct: made in house; host or cells: E. coli, e.g. BL21 (DE3)
T2 sequence (P01116 1-188 isoform P01116-2 G12S): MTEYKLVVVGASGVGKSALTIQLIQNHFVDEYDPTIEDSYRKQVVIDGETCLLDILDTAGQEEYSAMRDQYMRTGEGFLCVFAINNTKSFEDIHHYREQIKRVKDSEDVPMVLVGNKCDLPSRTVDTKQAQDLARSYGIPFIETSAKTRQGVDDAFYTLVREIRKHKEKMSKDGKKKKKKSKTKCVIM
Outline: as §1

KRAS WT = target: T3, KRAS WT (Homo sapiens, UniProt P01116); assay: HTRF assay of wildtype K-Ras interaction with SOS1 (PPI-HTRF); conditions: HTRF, 5 nM KRAS WT; read-out: PPI-HTRF-5 nM KRAS WT
T3 construct: made in house; host or cells: E. coli, e.g. BL21 (DE3)
T3 sequence (P01116 1-188 isoform P01116-2): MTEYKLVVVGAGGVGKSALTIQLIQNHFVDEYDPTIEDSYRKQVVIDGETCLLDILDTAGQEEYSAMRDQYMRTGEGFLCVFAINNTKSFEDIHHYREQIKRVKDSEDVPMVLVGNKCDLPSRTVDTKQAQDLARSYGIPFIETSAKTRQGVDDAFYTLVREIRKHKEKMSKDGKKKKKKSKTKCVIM
Outline: as §1

T1 sequence (P01116 1-188 isoform P01116-2 G12D): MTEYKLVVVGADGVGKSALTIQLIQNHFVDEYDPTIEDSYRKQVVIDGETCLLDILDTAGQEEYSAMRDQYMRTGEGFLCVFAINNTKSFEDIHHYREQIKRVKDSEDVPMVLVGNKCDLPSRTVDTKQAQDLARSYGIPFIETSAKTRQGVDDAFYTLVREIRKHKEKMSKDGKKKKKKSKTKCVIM

Row | Compound | IC50 (KRAS G12D) [µM] | IC50 (KRAS G12S) [µM] | IC50 (KRAS WT) [µM]
1 | C=CC(=O)N1CC[C@@]12CCN(c1nc(OC[C@@]34CCCN3C[C@H](F)C4)nc3c(F)c(-c4ccc(F)c5sc(N)c(C#N)c45)c(Cl)cc13)C2 [Compound 291] | < 5 | < 5 | < 5
2 | Cc1nc(Cl)n(C(=O)N2CCC23CCN(c2nc(OC[C@@]45CCCN4C[C@H](F)C5)nc4c(F)c(-c5ccc(F)c6sc(N)c(C#N)c56)c(Cl)cc24)C3)n1 (stereo partly drawn) [Compound 311, 2-amino-4-(6-chloro-4-(1-(5-chloro-3-methyl-1H-1,2,4-triazole-1-carbonyl)-1,6-diazaspiro[3.4]octan-6-yl)-8-fluoro-2-(((2R,7aS)-2-fluorotetrahydro-1H-pyrrolizin-7a(5H)-yl)methoxy)quinazolin-7-yl)-7-fluorobenzo[b]thiophene-3-carbonitrile] | < 5 | < 5 | < 5
3 | N#Cc1c(N)sc2c(F)ccc(-c3c(F)c4nc(OC[C@@]56CCCN5C[C@H](F)C6)nc(N5CCC6(CCN6)C5)c4c(=O)n3C3CC3)c12 (stereo partly drawn) [Compound 333, 2-amino-4-(6-cyclopropyl-8-fluoro-2-(((2R,7aS)-2-fluorotetrahydro-1H-pyrrolizin-7a(5H)-yl)methoxy)-5-oxo-4-(1,6-diazaspiro[3.4]octan-6-yl)-5,6-dihydropyrido[4,3-d]pyrimidin-7-yl)-7-fluorobenzo[b]thiophene-3-carbonitrile] | < 5 | < 5 | < 5
4 | N#Cc1c(N)sc2c(F)ccc(-c3c(Cl)cc4c(N5CC[C@@]6(CCN6C(=O)n6cnc(C(F)F)n6)C5)nc(OC[C@@]56CCCN5C[C@H](F)C6)nc4c3F)c12 (atropisomer, axis not shown; (aS)) [Compound 278, 2-amino-4-((R)-6-chloro-4-((R)-1-(3-(difluoromethyl)-1H-1,2,4-triazole-1-carbonyl)-1,6-diazaspiro[3.4]octan-6-yl)-8-fluoro-2-(((2R,7aS)-2-fluorotetrahydro-1H-pyrrolizin-7a(5H)-yl)methoxy)quinazolin-7-yl)-7-fluorobenzo[b]thiophene-3-carbonitrile] | < 5 | < 5 | < 5
5 | N#Cc1c(N)sc2c(F)ccc(-c3c(Cl)cc4c(N5CC[C@@]6(CCN6)C5)nc(OC[C@@]56CCCN5C[C@H](F)C6)nc4c3F)c12 [Compound 331, 2-amino-4-(6-chloro-8-fluoro-2-(((2R,7aS)-2-fluorotetrahydro-1H-pyrrolizin-7a(5H)-yl)methoxy)-4-((S)-1,6-diazaspiro[3.4]octan-6-yl)quinazolin-7-yl)-7-fluorobenzo[b]thiophene-3-carbonitrile] | < 5 | < 5 | < 5
6 | CC(C)c1ncn(C(=O)N2CCC23CCN(c2nc(OC[C@@]45CCCN4C[C@H](F)C5)nc4c(F)c(-c5ccc(F)c6sc(N)c(C#N)c56)c(Cl)cc24)C3)n1 (stereo partly drawn) [Compound 304, 2-amino-4-(6-chloro-8-fluoro-2-(((2R,7aS)-2-fluorotetrahydro-1H-pyrrolizin-7a(5H)-yl)methoxy)-4-(1-(3-isopropyl-1H-1,2,4-triazole-1-carbonyl)-1,6-diazaspiro[3.4]octan-6-yl)quinazolin-7-yl)-7-fluorobenzo[b]thiophene-3-carbonitrile] | < 5 | < 5 | < 5
7 | C[C@H](Oc1nc(N2CCCC3(CCN3C(=O)C3CC3(F)F)C2)c2cc(Cl)c(-c3ccc(F)c4sc(N)c(C#N)c34)c(F)c2n1)[C@@H]1CCCN1C (stereo partly drawn) [Compound 223, 2-Amino-4-(6-chloro-4-(1-(2,2-difluorocyclopropane-1-carbonyl)-1,6-diazaspiro[3.5]nonan-6-yl)-8-fluoro-2-((S)-1-((S)-1-methylpyrrolidin-2-yl)ethoxy)quinazolin-7-yl)-7-fluorobenzo[b]thiophene-3-carbonitrile] | < 5 | < 5 | < 5
8 | N#Cc1c(N)sc2c(F)ccc(-c3c(Cl)cc4c(N5CCCC6(CCCN6)C5)nc(OC[C@@]56CCCN5C[C@H](F)C6)nc4c3F)c12 (stereo partly drawn) [Compound 218, 2-amino-4-(6-chloro-8-fluoro-2-(((2R,7aS)-2-fluorotetrahydro-1H-pyrrolizin-7a(5H)-yl)methoxy)-4-(1,7-diazaspiro[4.5]decan-7-yl)quinazolin-7-yl)-7-fluorobenzo[b]thiophene-3-carbonitrile] | < 5 | < 5 | < 5

The next lines start with the values.

Row | IC50 (KRAS G12D) [µM] | IC50 (KRAS G12S) [µM] | IC50 (KRAS WT) [µM] | Compound
9 | < 5 | < 5 | < 5 | N#Cc1c(N)sc2c(F)ccc(-c3c(Cl)cc4c(N5CCC6(C5)N(C(=O)C5CC5(F)F)CC6(F)F)nc(OC[C@@]56CCCN5C[C@H](F)C6)nc4c3F)c12 (stereo partly drawn) [Compound 228, 2-amino-4-(6-chloro-4-(1-(2,2-difluorocyclopropane-1-carbonyl)-3,3-difluoro-1,6-diazaspiro[3.4]octan-6-yl)-8-fluoro-2-(((2R,7aS)-2-fluorotetrahydro-1H-pyrrolizin-7a(5H)-yl)methoxy)quinazolin-7-yl)-7-fluorobenzo[b]thiophene-3-carbonitrile]
10 | < 5 | < 5 | < 5 | N#Cc1c(N)sc2c(F)ccc(-c3c(Cl)cc4c(N5CCC6(CCCN6)C5)nc(OC[C@@]56CCCN5C[C@H](F)C6)nc4c3F)c12 (stereo partly drawn) [Compound 284, 2-amino-4-(6-chloro-8-fluoro-2-(((2R,7aS)-2-fluorotetrahydro-1H-pyrrolizin-7a(5H)-yl)methoxy)-4-(1,7-diazaspiro[4.4]nonan-7-yl)quinazolin-7-yl)-7-fluorobenzo[b]thiophene-3-carbonitrile]
11 | < 5 | < 5 | < 5 | N#Cc1c(N)sc2c(F)ccc(-c3c(Cl)cc4c(N5CCC6(CCCCN6C(=O)C6CC6(F)F)C5)nc(OC[C@@]56CCCN5C[C@H](F)C6)nc4c3F)c12 (stereo partly drawn) [Compound 240, 2-amino-4-(6-chloro-4-(6-(2,2-difluorocyclopropane-1-carbonyl)-2,6-diazaspiro[4.5]decan-2-yl)-8-fluoro-2-(((2R,7aS)-2-fluorotetrahydro-1H-pyrrolizin-7a(5H)-yl)methoxy)quinazolin-7-yl)-7-fluorobenzo[b]thiophene-3-carbonitrile]
12 | < 5 | < 5 | < 5 | N#Cc1c(N)sc2c(F)ccc(-c3c(F)c4nc(OC[C@@]56CCCN5C[C@H](F)C6)nc(N5CCC6(CCN6C(=O)n6cncn6)C5)c4c(=O)n3C3CC3)c12 (stereo partly drawn) [Compound 267, 4-(4-(1-(1H-1,2,4-triazole-1-carbonyl)-1,6-diazaspiro[3.4]octan-6-yl)-6-cyclopropyl-8-fluoro-2-(((2R,7aS)-2-fluorotetrahydro-1H-pyrrolizin-7a(5H)-yl)methoxy)-5-oxo-5,6-dihydropyrido[4,3-d]pyrimidin-7-yl)-2-amino-7-fluorobenzo[b]thiophene-3-carbonitrile]
13 | < 5 | < 5 | < 5 | N#Cc1c(N)sc2c(F)ccc(-c3c(Cl)cc4c(N5CCCC6(CCN6C(=O)n6cncn6)C5)nc(OC[C@@]56CCCN5C[C@H](F)C6)nc4c3F)c12 (stereo partly drawn) [Compound 275, 4-(4-(1-(1H-1,2,4-triazole-1-carbonyl)-1,6-diazaspiro[3.5]nonan-6-yl)-6-chloro-8-fluoro-2-(((2R,7aS)-2-fluorotetrahydro-1H-pyrrolizin-7a(5H)-yl)methoxy)quinazolin-7-yl)-2-amino-7-fluorobenzo[b]thiophene-3-carbonitrile]
14 | < 5 | < 5 | < 5 | CCc1ncn(C(=O)N2CCC23CCN(c2nc(OC[C@@]45CCCN4C[C@H](F)C5)nc4c(F)c(-c5ccc(F)c6sc(N)c(C#N)c56)c(Cl)cc24)C3)n1 (stereo partly drawn) [Compound 314, 2-amino-4-(6-chloro-4-(1-(3-ethyl-1H-1,2,4-triazole-1-carbonyl)-1,6-diazaspiro[3.4]octan-6-yl)-8-fluoro-2-(((2R,7aS)-2-fluorotetrahydro-1H-pyrrolizin-7a(5H)-yl)methoxy)quinazolin-7-yl)-7-fluorobenzo[b]thiophene-3-carbonitrile]
